Format in all cases: in vivo, mice
In one data set the test system is p-Bad. The data set can be described thus: Western blot, injured cortex. As to conditions: 20 mg/kg ip 10 min after CCI; days 1 and 3; P>0.05. As to the method: (§1) Mice were anesthetized and positioned in a stereotaxic frame. LY294002 (200 nM in 0.5 µL of saline) or equal amount of physiological saline was intracerebroventricularly (icv) injected at 30 min before CCI as previously described. A 1 mm cranial burr hole was drilled into the skull. A 30-gauge needle on a Hamilton syringe was implanted into the lateral ventricle using stereotactic coordinates: 1.5 mm posterior to bregma and 1.0 mm right lateral to the midline, 2 mm in depth. LY294002 or saline was infused into the brain at a rate of 0.05 µL/min over 10 min with an infusion pump (KDS 310, KD Scientific Inc., Holliston, MA, USA), and the needle was left in place for an additional 20 min to prevent reflux. After the needle was removed, CCI procedure was conducted immediately. Sham-operated mice were infused icv with saline, but were not subjected to CCI.
(§2) Three sets of experiments were performed. The first set was to investigate the protective effects of salidroside. All animals were randomized into 1 of 3 groups (sham injury, CCI + vehicle, CCI + SALD 20). Surgery/injury, behavioral testing, and tissue analyses were performed by different individuals. Behavioral testing and tissue analyses were performed by individuals blinded to the treatment group. Salidroside (Cayman Chemical, Ann Arbor, MI, USA) dissolved in normal saline (0.25 mL) or a corresponding volume of vehicle (saline) was administered intraperitoneally 10 min following injury. Testing after injury was completed as follows: 1) behavioral testing at days 1, 4, 7, 14, 21, and 28 (n = 8–10 mice/group); 2) cresyl violet staining at day 28 (n = 9 mice/group); 3) histology, determination of brain water content, and western blot analysis at day 1 or 3 (n = 5–6 mice/group). To determine the optimal dose of salidroside, a pilot study was performed using 2 different doses (20 and 50 mg/kg) administered 10 min after injury, and neurological deficits and tissue damage were evaluated as the main outcomes. […] The second set of experiment was to assess the effect of the inhibition of PI3K/Akt with the specific PI3K inhibitor, LY294002 (Cell Signaling Technology, Danvers, MA, USA), on salidroside effects. Animals were randomized into 4 groups. Mice received either: 1) icv pretreatment of LY294002 followed by SALD 20 after CCI (S20Y group); or 2) icv pretreatment of saline (vehicle control) followed by SALD 20 after CCI (S20V group). 3) Mice were infused icv with saline and were subjected to sham injury. 4) Mice were infused icv with LY294002 and were subjected to sham injury. Testing after injury was completed as follows: 1) cresyl violet staining at day 28 (n = 6 mice/group); 2) western blot analysis at day 1 (n = 6 mice/group). The third set of experiment was performed to examine the neuroprotective time window afforded by salidroside. Mice received intraperitoneal SALD 20 or vehicle (saline) at 3 or 6 h following CCI and were sacrificed 1 day later for FJB staining and western blot analysis (n = 6 mice/group).
(§3) Brains of injured or sham animals were collected 1 day and 3 days post CCI or sham surgery, and a 4 mm coronal section from the injured area over the parietal cortex and ipsilateral hippocampus were collected. The protein samples were obtained from tissue homogenates in 300 µL of ice-cold reagent (T-PER reagent; Pierce Biotechnology, Rockford, IL, USA) with a complete mini protease inhibitor cocktail (Roche Molecular Biochemicals) centrifuged at 14000g for 30 min. Protein concentration was determined by Bradford reagent spectrophotometrically at A595. Equal amounts of protein samples were denatured in gel-loading buffer at 100°C for 5 min, and then loaded onto sodium dodecyl sulfate-polyacrylamide gels to be separated. Separated proteins were transferred to Immobilon-P membranes (Millipore, Billerica, MA, USA), blocked with the use of 5% milk in PBST and probed with primary antibodies. […]
A general note: Immunoblotting shows a protein as a band on a membrane.

Another data set concerns p-Akt Thr308. The data set can be described thus: Western blot, injured cortex. As to the method:
as §1, §2, §3

The next data set has as its system p-FOXO1. The data set can be described thus: Western blot, injured cortex. The conditions noted are these: 20 mg/kg ip 10 min after CCI; days 1 and 3; P>0.05. As to the method: as §1, §2, §3
For the next data set, the system named is p-Akt Ser473. The data set can be described thus: Western blot, injured cortex. As to conditions: for p-Akt Ser473 level, % of the vehicle level: 20 mg/kg ip 10 min after CCI. On the procedure:
as §1, §2, §3

The nature of the next data set: Body weight after CCI. As to conditions: P>0.05.
[1] abbreviates: 20 mg/kg ip 10 min after injury, day 1.

In the case of `OC[C@H]1O[C@@H](OCCc2ccc(O)cc2)[C@H](O)[C@@H](O)[C@@H]1O` [SALD, salidroside], the “p-Bad level versus vehicle group” value in the data set on p-Bad is on record as “no difference”. Besides, in the data set on p-Akt Thr308 (20 mg/kg ip 10 min after CCI, day 3, P<0.05), the “p-Akt Thr308 level, % of the vehicle level” value is on record as 176.0%. Further, the “increase of p-Akt Thr308 level” value in the data set on p-Akt Thr308 (setting [1]) is on record as 30.3%. Moreover, the “change of p-Akt Thr308 level (attenuated by)” value in the data set with p-Akt Thr308 (20 mg/kg ip 3 h after injury, day 1, not significant) is given as 19.5%. Further, the “p-FOXO1 level versus vehicle group” value with p-FOXO1 was “no difference”. Besides, the “p-Akt Ser473 level, % of the vehicle level” value in the data set with p-Akt Ser473 (day 1, P<0.05) is on record as 200.7%; in the data set with p-Akt Ser473 (day 3, P>0.05) it was 146.9%. For the same compound, the “increase of p-Akt Ser473 level” value with p-Akt Ser473 (setting [1]) was found to be 100.7%. Further, in the data set on p-Akt Ser473 (20 mg/kg ip 3 h after injury, day 1), the “change of p-Akt Ser473 level (attenuated by)” value is recorded as 46.2%. Besides, the “body weight versus vehicle” value in “Body weight after CCI” (20 mg/kg ip after CCI) and in “Body weight after CCI” (50 mg/kg ip after CCI) was “No significant difference” each time.

For the origin of these results see PMC3454376, “Salidroside Improves Behavioral and Histological Outcomes and Reduces Apoptosis via PI3K/Akt Signaling after Experimental Traumatic Brain Injury” (PLoS ONE, 2012).
